Reference: PMC11984586, “A novel spider toxin as a selective antagonist of the Kv1 subfamily of voltage-gated potassium channels through gating modulation” (The Journal of Biological Chemistry, 2025)
Bridge positions count the residues as written; N and C are the ends. Peptide text beside a SMILES is read from it.

Assays:
Kv1.3/L343A = target: T1, Kv1.3/L343A (Homo sapiens, UniProt P22001, L343A); experiment: Whole-cell patch clamp, Kv1.3 alanine mutant; assay type: cell-based
T1 construct: expressed in transfected cells; host or cells: CHO-K1
Description: MrVIII inhibits Kv1 channels by stabilizing the voltage sensor in its resting state. […] To investigate this hypothesis, we constructed a series of alanine mutants in the S3-S4 region of the Kv1.3 channel, covering residues I336 to L363, to identify critical interactions between the peptide and the channel (Fig. 6A). […] For the remaining mutants that retained functional current expression, we evaluated the inhibitory activity of 100 nM MrVIII. […] The lack of conserved multiple interaction sites may explain the absence of activity on other Kv subfamily channels (Fig. S3). In summary, this study identified key amino acid residues in the S3-S4 region of the Kv1.3 channel that interact with MrVIII, providing a foundation for further exploration into the peptide's mechanism of action.
The cDNA of hKv1.1, hKv1.2, hKv1.3, rKv1.4, hKv1.5, mKv1.6, and hKv1.7 were subcloned into mammalian expression vectors pcDNA3.1 or pCMV-blank vectors, as well as other plasmids described previously ([35]). Channel mutants were generated by site-directed mutations. Briefly, the parental channel plasmid was amplified using a pair of oppositely directed primers harboring the designed mutation site, with KOD Fx (TOYOBO Co, Ltd). The resulting PCR mix was treated with FastDigest DpnI (Thermo Fisher Scientific) to remove the methylated template. Ten microliters of the digested product was then used to transform 100 μl E. coli DH5α competent cells. Transformants were randomly picked and sequenced to confirm the presence of the intended mutation.
(§1) CHO-K1 cells were selected for expressing Kv channels due to their lack of endogenous Kv channels, while HEK293 or ND7/23 cells were used for Nav and Cav channel expression. CHO-K1 cells were cultured in a Dulbecco's modified Eagle's medium/Ham's F-12 nutrient mixture (DMEM-F12) medium, and HEK293T and ND7/23 cells in DMEM medium, all supplemented with 10% fetal bovine serum and 1% penicillin-streptomycin (all from Gibco, Thermo Fisher Scientific, Inc) under standard conditions (37 °C, 5% CO2, and saturated humidity). These cell lines were purchased from Stem Cell Bank, Chinese Academy of Sciences. Channel plasmids were cotransfected with pEGFP-N1 (encoding GFP) into the respective cells using lipofectamine 2000, following the manufacturer's instructions (Invitrogen, Thermo Fisher Scientific, Inc.). Nav1.9-GFP plasmid was transfected into ND7/23 using the X-tremeGENE HP DNA Transfection Reagent (Roche). After 4 to 6 h transfection, cells were seeded onto poly-lysine–coated coverslips, and 24 to 36 h later, transfected cells were ready for patch-clamp analysis.
Patch clamp experiments were conducted using an electrophysiology platform comprising a MultiClamp 700B amplifier and an Axon Digidata 1550 AD/DA convertor (Axon Instruments). Data acquisition was performed with pClamp 10.5 software (Axon Instruments). All experiments were performed at room temperature.
For Kv current recordings, the bath solution contained (in mM) the following: 140 NaCl, 5 KCl, 1 MgCl2, 2 CaCl2, 10 glucose, and 10 Hepes (pH 7.3, adjusted with NaOH), and the pipette solution contained (in mM) the following: 140 KCl, 2.5 MgCl2, 11 EGTA, and 10 Hepes (pH 7.3, adjusted with KOH). Series resistance was maintained below 10 MΩ and compensated to 80%. Concentration–response curves were fitted by the Hill equation to determine the toxin's potency. Whole cell conductance (G) at each depolarizing voltage (V) was determined using the equation: G = I/(V−Vrev), where I is the current amplitude, and Vrev is the reversal potential. The reversal potential for K^+ current was estimated to be −85.6 mV using the Nernst equation. G-V curves were obtained by plotting the normalized conductance as a function of V and fitted by the Boltzmann equation: y = 1/(1+ exp((Va-V)/k)), which Va is the midpoint voltage, V is the test potential, and k is the slope factor. The steady-state fast inactivation of Kv1.3 was measured using a two-pulses protocol. […]

hERG = experiment: Selectivity patch clamp, non-Kv1 channels; assay type: cell-based, human; conditions: 10 μM MrVIII; n = 3–5
Description: as §1, with “Channel plasmids were cotransfected with pEGFP-N1 (encoding GFP) into the respective cells using lipofectamine 2000, following the manufacturer's instructions (Invitrogen, Thermo Fisher Scientific, Inc.). Nav1.9-GFP plasmid was transfected into ND7/23 using the X-tremeGENE HP DNA Transfection Reagent (Roche).” left out, “analysis. […]” for “analysis.”
For Kv current recordings, the bath solution contained (in mM) the following: 140 NaCl, 5 KCl, 1 MgCl2, 2 CaCl2, 10 glucose, and 10 Hepes (pH 7.3, adjusted with NaOH), and the pipette solution contained (in mM) the following: 140 KCl, 2.5 MgCl2, 11 EGTA, and 10 Hepes (pH 7.3, adjusted with KOH). […] Whole cell conductance (G) at each depolarizing voltage (V) was determined using the equation: G = I/(V−Vrev), where I is the current amplitude, and Vrev is the reversal potential. […] The steady-state fast inactivation of Kv1.3 was measured using a two-pulses protocol. […]

T1 sequence (P22001 whole entry L343A): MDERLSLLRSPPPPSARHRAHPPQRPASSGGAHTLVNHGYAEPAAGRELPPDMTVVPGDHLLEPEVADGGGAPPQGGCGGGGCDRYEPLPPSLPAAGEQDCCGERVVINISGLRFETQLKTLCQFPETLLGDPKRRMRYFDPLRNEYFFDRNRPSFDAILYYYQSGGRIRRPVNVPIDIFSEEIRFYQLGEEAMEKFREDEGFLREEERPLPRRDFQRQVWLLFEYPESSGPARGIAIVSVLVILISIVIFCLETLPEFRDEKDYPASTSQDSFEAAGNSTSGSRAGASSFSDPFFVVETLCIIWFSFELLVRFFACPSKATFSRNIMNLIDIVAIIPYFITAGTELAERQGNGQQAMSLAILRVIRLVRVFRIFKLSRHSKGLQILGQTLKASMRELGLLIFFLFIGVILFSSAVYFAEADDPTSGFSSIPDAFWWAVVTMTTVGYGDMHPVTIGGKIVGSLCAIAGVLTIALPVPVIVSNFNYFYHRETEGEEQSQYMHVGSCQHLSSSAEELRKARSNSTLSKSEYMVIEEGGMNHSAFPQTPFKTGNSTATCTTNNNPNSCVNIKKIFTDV

**Q.** Which results are given for CC[C@H](C)[C@@H]1NC(=O)[C@H](Cc2ccc(O)cc2)NC(=O)[C@H](CCC(N)=O)NC(=O)[C@@H]2CCCN2C(=O)[C@@H]2CSSC[C@H](NC(=O)[C@H](C)NC(=O)[C@H](CO)NC(=O)[C@H](CCC(=O)O)NC(=O)[C@H](CCC(=O)O)NC(=O)[C@@H](N)[C@@H](C)O)C(=O)NCC(=O)NCC(=O)N[C@@H](Cc3ccccc3)C(=O)N[C@@H](CC(N)=O)C(=O)N[C@@H](C)C(=O)N[C@@H](CCCNC(=N)N)C(=O)N[C@H]3CSSC[C@H](NC1=O)C(=O)N[C@@H](CCCCN)C(=O)NCC(=O)N[C@@H](Cc1c[nH]c4ccccc14)C(=O)N[C@@H](CCCNC(=N)N)C(=O)N[C@@H]([C@@H](C)O)C(=O)N[C@@H](CCCCN)C(=O)N[C@@H](CCCNC(=N)N)C(=O)N[C@H](C(=O)N[C@@H](CC(C)C)C(=O)N[C@@H](CC(N)=O)C(=O)N1CCC[C@H]1C(=O)O)CSSC[C@H](NC(=O)[C@H](CCCCN)NC(=O)[C@H](Cc1c[nH]cn1)NC(=O)[C@H](CC(C)C)NC(=O)[C@@H]1CCCN1C3=O)C(=O)N2 [MrVIII] (H-TEESACGGFNARCPLHKCCPQYICKGWRTKRCLNP-OH; disulfide 6-19, 13-24, 18-32; N-terminus and C-terminus assumed)?
**A.** decrease of inhibitory potency vs WT Kv1.3, L343A (Kv1.3/L343A; 100 nM MrVIII on mutant compared with 10 nM on WT Kv1.3, +30 mV, n = 4–7): more than 10 fold; IC50 (Kv1.3/L343A; +30 mV, 500 ms, mean ± SD, n = 4–6, SD, read-out: IC50, Kv1.3/L343A current): 135 ± 34 nM; inhibition of hERG current (hERG): did not remarkably inhibit
